Our source for the inhibition values is ChEMBL document CHEMBL3301458, “MMV Malaria Box hERG screening”.

SMILES strings stand for the structures. Calls of active or inactive are those of the source. How the calls were made is not given here.

For data set [1], the target named is T1, hERG (Kv11.1, KCNH2) (Homo sapiens, UniProt Q12809). Nature of the data set: in vitro.
Description: MMV: Malaria Box compounds were tested for inhibition of the human ether a go-go related gene (hERG), Kv11.1 channel, using IonWorks 384-well patch clamp electrophysiology at 11.1uM (3 independent assay plates up to 12 cells per concentration).
Data set [2] addresses T1, hERG (Kv11.1, KCNH2). Nature of the data set: in vitro. This is another data set of the same source.
Description: MMV: Malaria Box compounds were tested for inhibition of the human ether a go-go related gene (hERG), Kv11.1 channel, using IonWorks 384-well patch clamp electrophysiology at 1.1uM (3 independent assay plates up to 12 cells per concentration).

T1 sequence (Q12809 whole entry): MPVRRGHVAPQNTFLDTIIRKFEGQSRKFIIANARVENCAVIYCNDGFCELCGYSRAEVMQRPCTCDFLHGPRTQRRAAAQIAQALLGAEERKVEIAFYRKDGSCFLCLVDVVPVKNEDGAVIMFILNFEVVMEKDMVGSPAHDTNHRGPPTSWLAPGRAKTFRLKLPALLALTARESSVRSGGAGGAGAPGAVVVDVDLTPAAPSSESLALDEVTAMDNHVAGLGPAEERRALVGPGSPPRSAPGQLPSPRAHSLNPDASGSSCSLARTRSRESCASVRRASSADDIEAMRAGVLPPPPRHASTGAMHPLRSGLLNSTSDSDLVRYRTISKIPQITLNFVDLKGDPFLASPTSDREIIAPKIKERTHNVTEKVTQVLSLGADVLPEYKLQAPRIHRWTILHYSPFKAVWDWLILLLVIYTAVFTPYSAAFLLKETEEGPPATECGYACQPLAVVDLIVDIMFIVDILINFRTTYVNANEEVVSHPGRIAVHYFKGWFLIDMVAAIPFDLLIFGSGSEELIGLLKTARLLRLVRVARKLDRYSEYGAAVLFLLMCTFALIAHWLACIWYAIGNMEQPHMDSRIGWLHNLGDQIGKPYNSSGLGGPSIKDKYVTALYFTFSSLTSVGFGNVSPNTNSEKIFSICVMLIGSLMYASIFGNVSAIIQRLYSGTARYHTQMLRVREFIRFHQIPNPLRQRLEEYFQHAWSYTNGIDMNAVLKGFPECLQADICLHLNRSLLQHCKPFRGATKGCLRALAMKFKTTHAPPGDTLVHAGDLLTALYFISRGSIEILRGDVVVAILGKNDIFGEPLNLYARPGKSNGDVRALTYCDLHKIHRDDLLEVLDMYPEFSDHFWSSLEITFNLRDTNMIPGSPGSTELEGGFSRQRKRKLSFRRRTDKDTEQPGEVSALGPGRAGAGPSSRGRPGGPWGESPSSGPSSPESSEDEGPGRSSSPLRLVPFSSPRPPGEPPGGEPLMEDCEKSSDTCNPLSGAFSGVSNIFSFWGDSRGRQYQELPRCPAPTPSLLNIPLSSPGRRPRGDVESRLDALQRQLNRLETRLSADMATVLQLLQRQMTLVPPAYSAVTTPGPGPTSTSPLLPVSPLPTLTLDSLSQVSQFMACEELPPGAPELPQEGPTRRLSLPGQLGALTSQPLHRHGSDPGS

For the compound `Nc1nc(Nc2cccc(F)c2)nc2ccccc12`, the inhibition at 11.1 µM at hERG (Kv11.1, KCNH2) [1] is 59% (active). Also, the inhibition at 1.1 µM against hERG (Kv11.1, KCNH2) [2] came to 11%.
The like results for `COc1ccc2nc(C)cc(Nc3ccccc3O)c2c1` were, in that order, 57% (active) and 18%.
The corresponding values for `CCn1nc(-c2ccc(C(=O)OC)cc2)nc2c(=O)n(C)c(=O)nc1-2` are 9% (inactive) and -2%.
For `CCCCCC(=O)N1c2ccccc2N=C2CC(c3ccc(OC)c(OC)c3)CC(O)=C2C1c1ccc(C(F)(F)F)cc1` (stereo not drawn), the inhibition at 11.1 µM on hERG (Kv11.1, KCNH2) [1] is 23% (inactive). Besides, at hERG (Kv11.1, KCNH2) [2], the inhibition at 1.1 µM came out at 9%.
Take `CCN1CCN(Cc2ccc(NC(=O)c3cc4ccc5cccnc5c4[nH]3)cc2)CC1`: the inhibition at 11.1 µM on hERG (Kv11.1, KCNH2) [1] was 106% (active). The inhibition at 1.1 µM against hERG (Kv11.1, KCNH2) [2] was 41%.
The like results for `COc1ccc(C(=O)Nc2ccc3nc(N4CCCCC4)cc(C)c3c2)cc1OC` were, in that order, 96% and 63%.
The corresponding values for `O=C(NC1CCN(Cc2ccccc2)CC1)c1cc(-c2ccncc2)nc2ccc(Cl)cc12` are 72% (active) and 14%.
For `Cc1ccc(C(=O)c2oc3ccc4c(C)cc(=O)oc4c3c2C)cc1`, the inhibition at 11.1 µM on hERG (Kv11.1, KCNH2) [1] is 7% (inactive). Besides, the inhibition at 1.1 µM against hERG (Kv11.1, KCNH2) [2] is -3%.
On to `CCC(O)c1ccc(Br)cc1NC(=O)c1cccc(Cl)c1` (stereo not drawn), for which the inhibition at 11.1 µM on hERG (Kv11.1, KCNH2) [1] is 22% (inactive). The inhibition at 1.1 µM against hERG (Kv11.1, KCNH2) [2] is 13%.
The like results for `CN(C)CCCNCc1ccc(-c2ccc(F)c(Cl)c2)o1` were, in that order, 48% and 3%.
Consider `Cc1[nH]c(-c2ccc(F)cc2)cc1C(=O)NC1CCN(Cc2ccccc2)CC1`, for which the inhibition at 11.1 µM at hERG (Kv11.1, KCNH2) [1] was 96%. Besides, the inhibition at 1.1 µM on hERG (Kv11.1, KCNH2) [2] is 55%.
For the compound `CC1CN(C(=O)c2sc3ccccc3c2Cl)CC(C)O1` (stereo not drawn), on hERG (Kv11.1, KCNH2) [1], the inhibition at 11.1 µM is 10% (inactive). For the same compound, the inhibition at 1.1 µM against hERG (Kv11.1, KCNH2) [2] turned out to be 4%.
The corresponding values for `CCC(=O)Nc1nnc(Cc2ccc(OC)c(OC)c2)s1` are -7% (inactive) and -1%.
The corresponding values for `O=C(NCCCN1CCC(N2CCCCC2)CC1)C1=Cc2cc(Br)ccc2OC1` are 89% (active) and 5%.
The corresponding values for `O=C(NC1CCN(Cc2ccccc2)CC1)c1cc(C(=O)NC2CCN(Cc3ccccc3)CC2)cc(C(=O)NC2CCN(Cc3ccccc3)CC2)c1` are 39% and -2%.
For `Fc1ccc2[nH]c3c(NCCCN4CCOCC4)ncnc3c2c1`, at hERG (Kv11.1, KCNH2) [1], the inhibition at 11.1 µM is 77% (active). The inhibition at 1.1 µM against hERG (Kv11.1, KCNH2) [2] was found to be 24%.
For the compound `CC(=O)Nc1nnc(SCc2c(C)cc(C(C)(C)C)cc2C)s1`, the inhibition at 11.1 µM on hERG (Kv11.1, KCNH2) [1] is 6% (inactive). Moreover, on hERG (Kv11.1, KCNH2) [2], the inhibition at 1.1 µM worked out at 0%.
The corresponding values for `Cc1ccc(Cl)cc1N1CCN(CCCNC(=O)C2CCN(c3nc4ccccc4[nH]3)CC2)CC1` are 99% and 54%.
With `COc1ccc(-c2cn3c(C(=O)Nc4ccccc4Cl)c(-c4ccccc4)c4c3n2CCCC4)cc1`, the inhibition at 11.1 µM at hERG (Kv11.1, KCNH2) [1] is 56% (active). The inhibition at 1.1 µM on hERG (Kv11.1, KCNH2) [2] is 17%.
The like results for `O=C(Nc1ccc(CN2CCOCC2)cc1)c1ccc(-c2cc(Cl)ccc2Cl)o1` were, in that order, 88% (active) and 8%.
The like results for `CCOc1ccc(C2N(C)c3ccccc3N2C)cc1` were, in that order, 7% (inactive) and 2%.
`COc1ccc(C=C2SC(Nc3ccc(F)cc3)=NC2=O)c(OC)c1`: on hERG (Kv11.1, KCNH2) [1], the inhibition at 11.1 µM was 96% (active). Further, the inhibition at 1.1 µM against hERG (Kv11.1, KCNH2) [2] is 44%.
`COc1cccc(C(=O)Nc2ccc(-c3nc4ccccc4[nH]3)cc2)c1`: the inhibition at 11.1 µM on hERG (Kv11.1, KCNH2) [1] was 5% (inactive). Moreover, at hERG (Kv11.1, KCNH2) [2], the inhibition at 1.1 µM worked out at 4%.
`CCn1c(CN2CCN(Cc3ccccc3)CC2)nc2cc(NC(=O)c3cccs3)ccc21`: on hERG (Kv11.1, KCNH2) [1], the inhibition at 11.1 µM was 100%. Also, the inhibition at 1.1 µM at hERG (Kv11.1, KCNH2) [2] was determined as 71%.
On to `O=C(NC1CCN(Cc2ccccc2)CC1)c1cc(-c2cccnc2)nc2ccc(Cl)cc12`, for which the inhibition at 11.1 µM on hERG (Kv11.1, KCNH2) [1] was 86% (active). Also, on hERG (Kv11.1, KCNH2) [2], the inhibition at 1.1 µM is 18%.
The corresponding values for `CCN(CC)CCNc1ncnc2c1[nH]c1ccc(Br)cc12` are 102% and 91%.
The corresponding values for `CCOc1ccc(-n2cc(-c3ccccc3)c3c(SCc4cc(C)ccc4C)ncnc32)cc1` are -16% (inactive) and -10%.
For `Cc1ccc(C)c(Cn2c(N3CCC(C(=O)NCc4cccs4)CC3)nc3ccccc32)c1`, at hERG (Kv11.1, KCNH2) [1], the inhibition at 11.1 µM is 84% (active). The inhibition at 1.1 µM on hERG (Kv11.1, KCNH2) [2] was 16%.
Regarding `Cc1cc(N(C)C)nc(Nc2ccc(NC(=O)Nc3ccccc3)cc2)n1`, the inhibition at 11.1 µM at hERG (Kv11.1, KCNH2) [1] was -1% (inactive). In addition, at hERG (Kv11.1, KCNH2) [2], the inhibition at 1.1 µM was found to be 2%.
The corresponding values for `Clc1cc(Br)ccc1-c1ccc(CNCC2CCNCC2)o1` are 83% (active) and 16%.
Take `COc1ccccc1NC1=C(N2CCCCC2)C(=O)c2ccccc2C1=O`: the inhibition at 11.1 µM at hERG (Kv11.1, KCNH2) [1] was 16% (inactive). Moreover, on hERG (Kv11.1, KCNH2) [2], the inhibition at 1.1 µM stood at 4%.
In the case of `COc1ccc(-c2nonc2NC(=O)c2cccc(Cl)c2)cc1OC`, on hERG (Kv11.1, KCNH2) [1], the inhibition at 11.1 µM is -4% (inactive). Further, on hERG (Kv11.1, KCNH2) [2], the inhibition at 1.1 µM was found to be 4%.
For the compound `Oc1ccccc1CNCC12CC3CC(CC(C3)C1)C2`, at hERG (Kv11.1, KCNH2) [1], the inhibition at 11.1 µM was 41%. On hERG (Kv11.1, KCNH2) [2], the inhibition at 1.1 µM is 20%.
As to `CNCCCNc1ccnc2cc(Cl)ccc12`, the inhibition at 11.1 µM at hERG (Kv11.1, KCNH2) [1] is 21% (inactive). Further, the inhibition at 1.1 µM against hERG (Kv11.1, KCNH2) [2] was -1%.
Take `COc1cc(-c2nc(-c3ccccc3)c(-c3ccccc3)[nH]2)cc(OC)c1O`: on hERG (Kv11.1, KCNH2) [1], the inhibition at 11.1 µM is 18% (inactive). In addition, the inhibition at 1.1 µM against hERG (Kv11.1, KCNH2) [2] stood at 11%.
The corresponding values for `COc1ccc(Br)cc1C1Nc2ccc3ccccc3c2C2=C1C(=O)CC(c1ccccc1)C2` (stereo not drawn) are 5% (inactive) and -2%.
On to `Cc1ccc(-c2nc3ccccc3o2)cc1NCc1cc(Cc2ccccc2)ccc1O`, for which the inhibition at 11.1 µM on hERG (Kv11.1, KCNH2) [1] was 10% (inactive). Moreover, the inhibition at 1.1 µM on hERG (Kv11.1, KCNH2) [2] was 11%.
Take `Cc1cc(C)c2nc(N3CCC(C(=O)NCCCN4CCC(N5CCCCC5)CC4)CC3)sc2c1`: the inhibition at 11.1 µM at hERG (Kv11.1, KCNH2) [1] was 60% (active). Further, the inhibition at 1.1 µM at hERG (Kv11.1, KCNH2) [2] worked out at 18%.
The corresponding values for `CC1CCN(Cc2ccc(NC(=O)c3cc4ccc5cccnc5c4[nH]3)cc2)CC1` are 101% and 64%.
Turning to `COc1cc(SC)ccc1C(=O)N1CCCC(C)C1` (stereo not drawn), the inhibition at 11.1 µM at hERG (Kv11.1, KCNH2) [1] was 8% (inactive). Also, the inhibition at 1.1 µM at hERG (Kv11.1, KCNH2) [2] is 16%.
For `CC(C)(C)c1ccc(C(=O)Nc2nc3ccccc3s2)cc1`, the inhibition at 11.1 µM on hERG (Kv11.1, KCNH2) [1] is 7% (inactive). Further, the inhibition at 1.1 µM at hERG (Kv11.1, KCNH2) [2] is -3%.
For `COc1cc(CNCCc2ccc(Cl)cc2)cc(OC)c1O`, the inhibition at 11.1 µM on hERG (Kv11.1, KCNH2) [1] is 59% (active). In addition, the inhibition at 1.1 µM at hERG (Kv11.1, KCNH2) [2] is 16%.
The like results for `COc1cc2c(cc1OC)C1=NNC(=O)C1=NC(C)(C)C2` were, in that order, 11% (inactive) and 9%.
The corresponding values for `CN(C)c1ccc(N=Cc2ccc(N3CCOCC3)cc2)cc1` are -3% (inactive) and -6%.

A word on the inhibition: it is the relative decrease from the control value, in per cent.
